Laboratory results reported in ChEMBL document CHEMBL4000195, “Design and synthesis of novel 7-aminosubstituted pyrido[2,3-b]pyrazines exhibiting anti-breast cancer activity” (Eur J Med Chem, 2017).
The source made the active and inactive calls. The rule behind the calls is not given here.

Tests used:
[1] = molecular target: Phosphatidylinositol 4,5-bisphosphate 3-kinase catalytic subunit alpha isoform (Homo sapiens, UniProt P42336); test: Inhibition of PI3Kalpha catalytic domain (unknown origin) at 10 uM using PIP2 liposomes as substrate in presence of biotin-labeled PIP3 and GST-GRP1-PH by streptavidin-HRP based assays
MCF7 [2] = test: Cytotoxicity against human MCF7 cells at 10 uM by MTT assay; assay type: functional
Mus musculus [3] = test: In vivo inhibition of Akt phosphorylation at Ser473 residue in NOD/SCID mouse tumor xenografted with HER2-amplified human HCC1954 cells at 10 mg/kg, ip administered once daily for 18 days measured after 1 hr last dose; assay type: functional, organism-based
[4] = Cmax in NOD/SCID mouse at 0.5 mg/kg, ip administered as single dose by LC-MS/MS method; assay type: ADME, organism-based; design: dose 0.5 mg/kg, route intraperitoneal; settings: in vivo
[5] = Cmax in NOD/SCID mouse at 0.5 mg/kg, po administered as single dose by LC-MS/MS method; assay type: ADME, organism-based; design: dose 0.5 mg/kg, route oral; settings: in vivo
[6] = molecular target: Vascular endothelial growth factor receptor 2 (Homo sapiens) (UniProt P35968); test: Inhibition of human wild type partial length VEGFR2 (R787 to P1253 residues) expressed in mammalian expression system at 10 uM by KinomeScan method relative to control
HCC1954 [7] = test: Cytotoxicity against human HCC1954 cells at 10 uM by MTT assay; assay type: functional
Mus musculus [8] = test: Toxicity in NOD/SCID mouse assessed as phenotypic changes at 0.5 mg/kg, ip administered as single dose; assay type: organism-based; settings: in vivo
[9] = Tmax in NOD/SCID mouse at 0.5 mg/kg, ip administered as single dose by LC-MS/MS method; assay type: ADME, organism-based; settings: in vivo
[10] = molecular target: Glycogen synthase kinase-3 (Sus scrofa) (UniProt B2LUN4+I6LNT8); test: Inhibition of pig GSK3alpha/beta using GS-1 as substrate in presence of [gamma33P]ATP after 30 mins by scintillation counting method
HCC1954 [11] = test: Anti-tumor activity against HER2-amplified human HCC1954 cells xenografted in NOD/SCID mouse assessed as tumor size at 10 mg/kg, ip administered once daily for 18 days measured after 1 hr last dose (reference value: 497 +/- 82 mm3); assay type: functional
T47D = test: Cytotoxicity against human T47D cells by MTT assay; assay type: functional, cell-based
[12] = Tmax in NOD/SCID mouse at 0.5 mg/kg, po administered as single dose by LC-MS/MS method; assay type: ADME, organism-based; settings: in vivo
[13] = molecular target: Receptor tyrosine-protein kinase erbB-2 (Homo sapiens) (UniProt P04626); test: Inhibition of human wild type partial length ERBB2 (K646 to V1225 residues) expressed in mammalian expression system at 10 uM by KinomeScan method relative to control
Mus musculus [14] = test: In vivo inhibition of ERK1/2 phosphorylation at Thr202/Tyr204 residue in NOD/SCID mouse tumor xenografted with HER2-amplified human HCC1954 cells at 10 mg/kg, ip administered once daily for 18 days measured after 1 hr last dose by […]; assay type: functional, organism-based
[15] = molecular target: Mitogen-activated protein kinase kinase kinase 1 (Homo sapiens) (UniProt Q13233); test: Inhibition of human wild type partial length MAP3K1 (L1202 to W1512 residues) expressed in mammalian expression system at 10 uM by KinomeScan method relative to control
[16] = molecular target: Mitogen-activated protein kinase kinase kinase 4 (Homo sapiens) (UniProt Q9Y6R4); test: Inhibition of human wild type partial length MAP3K4 (G1319 to E1608 residues) expressed in bacterial expression system at 10 uM by KinomeScan method relative to control
[17] = AUC (0 to 8 hrs) in NOD/SCID mouse at 10 mg/kg, ip administered as single dose by LC-MS/MS method; assay type: ADME, organism-based; design: dose 10 mg/kg, time < 8 hr, route intraperitoneal; settings: in vivo
[18] = molecular target: Tyrosine-protein kinase ITK/TSK (Homo sapiens) (UniProt Q08881); test: Inhibition of human wild type partial length ITK (R335 to L620 residues) expressed in bacterial expression system at 10 uM by KinomeScan method relative to control
[19] = system: Phosphatidylinositol 4,5-bisphosphate 3-kinase catalytic subunit alpha isoform (Homo sapiens), P42336 [H1047Y]; test: Inhibition of human wild type partial length PIK3CA H1047Y mutant (R108 to N1068 residues) expressed in mammalian expression system at 10 uM by KinomeScan method relative to control
[20] = molecular target: RAC-alpha serine/threonine-protein kinase (Homo sapiens) (UniProt P31749); test: Inhibition of human wild type partial length AKT1 expressed in bacterial expression system at 10 uM by KinomeScan method relative to control
[21] = molecular target: Receptor-type tyrosine-protein kinase FLT3 (Homo sapiens) (UniProt P36888); test: Inhibition of recombinant human GST-tagged FLT3 (571 to 993 residues) transphosphorylation activity expressed in baculovirus infected Sf9 cells using poly[Glu:Tyr] (4:1) as substrate after 60 mins
[22] = molecular target: Tyrosine-protein kinase BTK (Homo sapiens) (UniProt Q06187); test: Inhibition of human wild type full length BTK (M1 to S659 residues) expressed in mammalian expression system at 10 uM by KinomeScan method relative to control
MCF7 [23] = test: Cytotoxicity against human MCF7 cells by MTT assay; assay type: functional, cell-based
[24] = molecular target: Mitogen-activated protein kinase 1 (Homo sapiens) (UniProt P28482); test: Inhibition of human wild type full length ERK2 (M1 to S360 residues) expressed in bacterial expression system at 10 uM by KinomeScan method relative to control
[25] = molecular target: Epidermal growth factor receptor (Homo sapiens) (UniProt P00533); test: Inhibition of human EGFR (R669 to V1011 residues) expressed in bacterial expression system at 10 uM by KinomeScan method relative to control
[26] = AUC (0 to 24 hrs) in NOD/SCID mouse at 10 mg/kg, ip by LC-MS/MS method; assay type: ADME, organism-based; design: time < 24 hr, dose 10 mg/kg, route intraperitoneal; settings: in vivo
[27] = Cmax in NOD/SCID mouse at 10 mg/kg, ip administered as single dose by LC-MS/MS method; assay type: ADME, organism-based; design: dose 10 mg/kg, route intraperitoneal; settings: in vivo
Mus musculus [28] = test: In vivo inhibition of ERK1/2 phosphorylation at Thr202/Tyr204 residue in NOD/SCID mouse tumor xenografted with HER2-amplified human HCC1954 cells at 10 mg/kg, ip administered once daily for 18 days measured after 1 hr last dose; assay type: functional, organism-based
[29] = molecular target: Macrophage colony-stimulating factor 1 receptor (Homo sapiens) (UniProt P07333); test: Inhibition of human wild type partial length CSF1R (I564 to S939 residues) expressed in bacterial expression system at 10 uM by KinomeScan method relative to control
MCF7 [30] = test: Cytotoxicity against human MCF7 cells at 5 uM by MTT assay; assay type: functional
[31] = molecular target: Ephrin type-A receptor 1 (Homo sapiens) (UniProt P21709); test: Inhibition of human wild type partial length EPHA1 (V588 to I913 residues) expressed in bacterial expression system at 10 uM by KinomeScan method relative to control

Vascular endothelial growth factor receptor 2 (Homo sapiens), sequence (P35968 whole entry, the tested form may be a part): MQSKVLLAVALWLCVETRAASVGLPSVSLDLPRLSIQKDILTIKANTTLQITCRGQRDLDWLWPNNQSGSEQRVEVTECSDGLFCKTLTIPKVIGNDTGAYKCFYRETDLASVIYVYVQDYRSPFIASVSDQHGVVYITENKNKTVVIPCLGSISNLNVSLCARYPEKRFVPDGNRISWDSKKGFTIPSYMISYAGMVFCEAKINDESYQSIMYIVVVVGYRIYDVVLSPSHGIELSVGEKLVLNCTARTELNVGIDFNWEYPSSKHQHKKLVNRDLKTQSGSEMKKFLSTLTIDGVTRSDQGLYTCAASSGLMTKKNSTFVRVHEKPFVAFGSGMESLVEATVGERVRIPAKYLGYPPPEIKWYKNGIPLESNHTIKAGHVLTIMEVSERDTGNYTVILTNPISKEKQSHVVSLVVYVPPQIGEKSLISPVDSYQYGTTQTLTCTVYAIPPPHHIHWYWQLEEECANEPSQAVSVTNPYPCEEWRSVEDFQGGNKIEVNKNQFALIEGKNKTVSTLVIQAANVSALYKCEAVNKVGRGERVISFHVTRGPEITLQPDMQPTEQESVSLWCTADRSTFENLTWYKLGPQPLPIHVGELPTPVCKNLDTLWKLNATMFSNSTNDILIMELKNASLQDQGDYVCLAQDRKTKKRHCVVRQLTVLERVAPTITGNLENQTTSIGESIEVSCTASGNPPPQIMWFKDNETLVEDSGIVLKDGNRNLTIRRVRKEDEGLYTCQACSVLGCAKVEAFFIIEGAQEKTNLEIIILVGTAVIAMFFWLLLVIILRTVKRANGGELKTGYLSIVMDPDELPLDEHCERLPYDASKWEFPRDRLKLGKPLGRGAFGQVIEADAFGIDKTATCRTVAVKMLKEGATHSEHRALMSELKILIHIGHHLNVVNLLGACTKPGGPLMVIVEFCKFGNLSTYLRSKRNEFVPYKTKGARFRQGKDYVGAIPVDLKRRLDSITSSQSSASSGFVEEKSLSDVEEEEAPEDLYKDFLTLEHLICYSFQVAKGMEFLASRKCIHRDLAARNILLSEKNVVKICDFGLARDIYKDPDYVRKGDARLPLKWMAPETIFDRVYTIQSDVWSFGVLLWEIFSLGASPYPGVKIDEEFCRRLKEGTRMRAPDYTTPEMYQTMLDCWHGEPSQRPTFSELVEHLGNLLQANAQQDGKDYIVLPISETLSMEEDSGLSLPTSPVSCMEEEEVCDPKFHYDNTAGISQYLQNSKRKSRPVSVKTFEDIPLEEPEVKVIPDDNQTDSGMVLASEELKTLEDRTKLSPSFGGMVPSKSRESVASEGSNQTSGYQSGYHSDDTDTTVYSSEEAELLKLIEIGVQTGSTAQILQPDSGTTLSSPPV
Mitogen-activated protein kinase 1 (Homo sapiens), sequence (P28482 whole entry, the tested form may be a part): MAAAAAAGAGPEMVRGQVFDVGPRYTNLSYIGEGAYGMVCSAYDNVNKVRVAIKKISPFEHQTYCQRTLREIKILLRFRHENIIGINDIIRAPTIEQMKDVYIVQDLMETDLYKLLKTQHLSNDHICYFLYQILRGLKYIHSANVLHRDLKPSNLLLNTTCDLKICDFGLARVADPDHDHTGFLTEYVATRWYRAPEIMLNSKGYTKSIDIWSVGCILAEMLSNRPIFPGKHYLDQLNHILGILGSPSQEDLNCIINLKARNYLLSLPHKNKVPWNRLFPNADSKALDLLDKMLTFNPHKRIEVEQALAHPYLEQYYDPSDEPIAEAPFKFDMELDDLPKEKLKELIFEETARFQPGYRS
Tyrosine-protein kinase BTK (Homo sapiens), sequence (Q06187 whole entry, the tested form may be a part): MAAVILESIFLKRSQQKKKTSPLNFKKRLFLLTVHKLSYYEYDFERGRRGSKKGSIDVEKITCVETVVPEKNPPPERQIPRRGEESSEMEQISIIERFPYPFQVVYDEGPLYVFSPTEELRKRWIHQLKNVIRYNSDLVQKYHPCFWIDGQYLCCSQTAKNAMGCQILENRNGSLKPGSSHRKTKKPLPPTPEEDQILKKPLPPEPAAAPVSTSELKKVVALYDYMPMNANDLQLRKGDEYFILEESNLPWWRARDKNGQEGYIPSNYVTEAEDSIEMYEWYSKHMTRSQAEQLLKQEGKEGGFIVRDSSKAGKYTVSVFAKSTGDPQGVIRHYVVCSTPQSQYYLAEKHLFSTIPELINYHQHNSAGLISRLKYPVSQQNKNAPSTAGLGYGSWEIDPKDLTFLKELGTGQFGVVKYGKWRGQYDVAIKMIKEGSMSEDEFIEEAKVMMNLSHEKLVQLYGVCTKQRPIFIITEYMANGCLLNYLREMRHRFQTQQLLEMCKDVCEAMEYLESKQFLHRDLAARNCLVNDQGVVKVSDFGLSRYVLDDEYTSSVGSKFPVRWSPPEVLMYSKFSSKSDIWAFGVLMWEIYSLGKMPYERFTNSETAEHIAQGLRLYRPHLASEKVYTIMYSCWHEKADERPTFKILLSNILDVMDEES
Mitogen-activated protein kinase kinase kinase 1 (Homo sapiens), sequence (Q13233 whole entry, the tested form may be a part): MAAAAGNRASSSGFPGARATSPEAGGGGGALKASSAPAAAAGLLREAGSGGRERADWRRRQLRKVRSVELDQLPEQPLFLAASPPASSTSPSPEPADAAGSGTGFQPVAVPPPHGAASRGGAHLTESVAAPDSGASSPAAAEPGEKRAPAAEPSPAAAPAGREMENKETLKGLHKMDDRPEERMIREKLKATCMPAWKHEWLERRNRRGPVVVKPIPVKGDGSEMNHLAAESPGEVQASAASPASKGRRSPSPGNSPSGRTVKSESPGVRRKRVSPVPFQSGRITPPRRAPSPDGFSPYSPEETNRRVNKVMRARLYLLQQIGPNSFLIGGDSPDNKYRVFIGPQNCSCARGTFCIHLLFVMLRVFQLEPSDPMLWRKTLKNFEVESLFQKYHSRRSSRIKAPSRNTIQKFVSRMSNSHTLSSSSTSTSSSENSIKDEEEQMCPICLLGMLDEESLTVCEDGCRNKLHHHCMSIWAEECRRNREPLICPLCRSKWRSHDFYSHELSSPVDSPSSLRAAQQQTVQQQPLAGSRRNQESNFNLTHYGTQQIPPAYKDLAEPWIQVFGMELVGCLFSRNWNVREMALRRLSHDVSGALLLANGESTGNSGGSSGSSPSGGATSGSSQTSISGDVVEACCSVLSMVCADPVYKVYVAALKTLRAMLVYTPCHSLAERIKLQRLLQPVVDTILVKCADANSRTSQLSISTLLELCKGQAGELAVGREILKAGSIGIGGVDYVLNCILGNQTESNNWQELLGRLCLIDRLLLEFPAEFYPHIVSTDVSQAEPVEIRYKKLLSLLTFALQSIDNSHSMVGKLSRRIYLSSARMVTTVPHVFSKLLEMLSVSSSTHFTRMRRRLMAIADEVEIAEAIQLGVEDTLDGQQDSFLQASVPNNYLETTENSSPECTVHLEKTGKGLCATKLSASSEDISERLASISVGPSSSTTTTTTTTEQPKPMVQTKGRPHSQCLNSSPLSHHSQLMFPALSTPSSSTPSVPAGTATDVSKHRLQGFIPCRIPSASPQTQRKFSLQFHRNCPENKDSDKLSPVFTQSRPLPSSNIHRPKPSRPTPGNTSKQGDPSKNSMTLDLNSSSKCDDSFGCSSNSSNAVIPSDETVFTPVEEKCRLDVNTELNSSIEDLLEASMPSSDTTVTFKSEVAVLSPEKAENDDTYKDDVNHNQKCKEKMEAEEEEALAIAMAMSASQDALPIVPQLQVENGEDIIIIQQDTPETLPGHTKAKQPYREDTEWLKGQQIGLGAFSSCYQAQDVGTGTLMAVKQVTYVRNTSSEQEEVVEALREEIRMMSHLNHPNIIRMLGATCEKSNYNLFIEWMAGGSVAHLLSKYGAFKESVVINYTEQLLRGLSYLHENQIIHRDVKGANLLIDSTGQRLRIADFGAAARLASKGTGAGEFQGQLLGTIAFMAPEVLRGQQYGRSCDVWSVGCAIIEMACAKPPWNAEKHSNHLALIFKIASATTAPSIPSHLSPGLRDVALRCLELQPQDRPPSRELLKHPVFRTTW
Phosphatidylinositol 4,5-bisphosphate 3-kinase catalytic subunit alpha isoform, sequence (P42336 whole entry, the tested form may be a part, canonical isoform): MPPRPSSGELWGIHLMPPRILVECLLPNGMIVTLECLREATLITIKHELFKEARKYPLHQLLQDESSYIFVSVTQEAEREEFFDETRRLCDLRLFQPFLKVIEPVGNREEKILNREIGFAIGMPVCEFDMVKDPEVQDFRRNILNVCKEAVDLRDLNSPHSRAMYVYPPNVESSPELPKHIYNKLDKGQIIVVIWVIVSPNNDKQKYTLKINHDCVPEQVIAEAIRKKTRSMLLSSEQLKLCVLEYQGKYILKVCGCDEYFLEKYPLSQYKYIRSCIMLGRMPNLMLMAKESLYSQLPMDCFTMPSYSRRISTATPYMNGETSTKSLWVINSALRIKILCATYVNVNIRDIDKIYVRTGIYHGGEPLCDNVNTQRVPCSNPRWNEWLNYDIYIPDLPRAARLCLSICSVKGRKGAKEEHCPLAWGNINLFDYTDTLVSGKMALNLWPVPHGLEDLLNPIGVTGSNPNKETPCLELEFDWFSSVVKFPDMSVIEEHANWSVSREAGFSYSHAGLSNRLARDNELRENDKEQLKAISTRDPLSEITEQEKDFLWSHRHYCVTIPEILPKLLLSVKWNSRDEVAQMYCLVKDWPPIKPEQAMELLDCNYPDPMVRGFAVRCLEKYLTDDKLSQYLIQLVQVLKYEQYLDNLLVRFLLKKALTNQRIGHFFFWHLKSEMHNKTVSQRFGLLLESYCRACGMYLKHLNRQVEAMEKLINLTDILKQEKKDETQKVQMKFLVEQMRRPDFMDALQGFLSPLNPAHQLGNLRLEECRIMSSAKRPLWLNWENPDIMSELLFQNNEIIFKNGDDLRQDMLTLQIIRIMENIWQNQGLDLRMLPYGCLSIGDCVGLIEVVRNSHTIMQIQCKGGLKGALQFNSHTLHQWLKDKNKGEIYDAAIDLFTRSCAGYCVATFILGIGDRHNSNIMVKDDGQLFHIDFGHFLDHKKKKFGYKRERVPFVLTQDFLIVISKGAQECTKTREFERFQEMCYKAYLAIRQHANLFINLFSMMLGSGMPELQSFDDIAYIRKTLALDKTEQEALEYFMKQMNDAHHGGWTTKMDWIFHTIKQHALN

Cc1nc2nc(Sc3ccccc3)cnc2cc1NC(=O)Nc1ccccc1
inhibition [1]: Active | Activity (MCF7 [2]): >50% | inhibition (Mus musculus [3]): Active | Cmax [4]: 820 nM | Cmax [5]: 470 nM | inhibition [6]: 1% | Activity (HCC1954 [7]): >50% | Activity (Mus musculus [8]): Non-Toxic | Tmax [9]: 30 min | inhibition [10]: inactive | Activity (HCC1954 [11]): 150 mm3 | IC50 (T47D): 5.7 µM | Tmax [12]: 60 min | inhibition [13]: 0% | inhibition (Mus musculus [14]): Active | inhibition [15]: 0% | inhibition [16]: 16% | AUC(0-t) at 8 h [17]: 19.9 µM·h | inhibition [18]: 5% | inhibition [19]: 8% | inhibition [20]: 3% | inhibition [21]: inactive | inhibition [22]: 10% | IC50 (MCF7 [23]): 3.1 µM | inhibition [24]: 0% | inhibition [25]: 8% | AUC(0-t) at 24 h [26]: 39.1 µM·h | Cmax [27]: 4300 to 4320 nM | inhibition (Mus musculus [28]): Active | inhibition [29]: 0% | Activity (MCF7 [30]): >50% | inhibition [31]: 9%
